Assay [1] concerns the target T1, GST tagged LXRalpha LBD (ligand binding domain) (Homo sapiens, UniProt Q13133).
T1 construct: purchased Invitrogen pv4655
T1 sequence (Q13133 209-447 limits assumed): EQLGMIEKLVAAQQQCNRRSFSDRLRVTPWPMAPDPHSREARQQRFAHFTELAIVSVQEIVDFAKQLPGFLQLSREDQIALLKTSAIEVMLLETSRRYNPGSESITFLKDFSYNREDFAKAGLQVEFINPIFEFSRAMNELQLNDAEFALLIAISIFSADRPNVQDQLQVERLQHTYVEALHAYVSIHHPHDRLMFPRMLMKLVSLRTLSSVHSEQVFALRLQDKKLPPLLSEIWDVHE
Description: LanthaScreen TR-FRET Liver X Receptor Coactivator Assay, LXR alpha-LBD (co-activator recruitment; IP and % Emax relative to T0901317). The format is biochemical. The note with it: for EC50 / LXR alpha IP (nM): Inflection Point of co-activator recruitment, LXR alpha-LBD, TR-FRET; for Emax: efficacy at max dose in relation to reference T0901317, LXR alpha-LBD, read-out: LXR alpha actiivty at max dose (%). In outline: (§1)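 LXR LBD protein was added to test compounds, then a mix of fluorescein-labelled coactivator peptide and terbium anti-GST antibody. After incubation at room temperature, TR-FRET was read. Inflection point and Emax were derived relative to the reference dual agonist T0901317.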

For assay [2], the target named is T2, GST tagged LXRbeta LBD (ligand binding domain) (Homo sapiens, UniProt P55055).
T2 construct: purchased Invitrogen pv4658.pps
T2 sequence (P55055 222-460 limits assumed): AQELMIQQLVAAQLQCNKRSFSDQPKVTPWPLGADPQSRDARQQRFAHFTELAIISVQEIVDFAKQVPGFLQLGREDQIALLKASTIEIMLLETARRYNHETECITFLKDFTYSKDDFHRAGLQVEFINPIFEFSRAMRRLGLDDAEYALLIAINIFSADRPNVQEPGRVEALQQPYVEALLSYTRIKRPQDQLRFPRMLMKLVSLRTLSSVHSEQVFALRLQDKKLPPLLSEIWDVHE
Description: LanthaScreen TR-FRET Liver X Receptor Coactivator Assay, LXR beta-LBD (co-activator recruitment; IP and % Emax relative to T0901317). Conditions: for EC50: Inflection Point of co-activator recruitment, LXR beta-LBD, TR-FRET; for Emax: efficacy at max dose in relation to reference T0901317, LXR beta-LBD, read-out: LXR beta actiivty at max dose (%). The format is biochemical. Summed up: as §1
In general terms: Time-resolved FRET reads energy transfer from a long-lived donor to a nearby acceptor.

Structures are written as SMILES.

This note sets out measurements from patent publication US10961215B2, “N-aryl and N-heteroaryl piperidine derivatives as liver X receptor beta agonists, compositions, and their use” (Merck Sharp & Dohme Corp., priority 2016, dated 2021).

For orientation: EC50 means the concentration giving half of the maximal effect. Low values mean greater potency, high ones weaker potency.

For `COc1cccc([C@@](O)(C(=O)N(C)CC[C@H]2CC23CCN(c2ccc(C(=O)NC(C)C)c(Cl)c2)CC3)C(F)(F)F)c1` [Example 7-10, 2-chloro-N-isopropyl-4-((R)-1-(2-((R)-3,3,3-trifluoro-2-hydroxy-2-(3-methoxyphenyl)-N-methylpropanamido)ethyl)-6-azaspiro[2.5]octan-6-yl)benzamide], in assay [1], the EC50 stood at 1060 nM and the Emax worked out at 35%. Further, in assay [2], the EC50 was 100 nM and the Emax worked out at 58%.

Turning to `CN(CC[C@H]1CC12CCN(c1ccc(C(=O)NC3CC3)c(Cl)c1)CC2)C(=O)[C@](O)(c1ccccc1)C(F)(F)F` [Example 7-11, 2-chloro-N-cyclopropyl-4-((R)-1-(2-((R)-3,3,3-trifluoro-2-hydroxy-N-methyl-2-phenylpropanamido)ethyl)-6-azaspiro[2.5]octan-6-yl)benzamide], in assay [1], the EC50 was determined as 1150 nM and the Emax is 42%. Besides, in assay [2], the response was half-maximal at 81 nM (EC50) and the Emax was determined as 60%.

Turning to `CC(C)NC(=O)c1ccc(N2CCC3(CC2)C[C@@H]3CCN(C)C(=O)[C@](O)(c2ccccc2)C(F)(F)F)cc1Cl` [Example 7-12, 2-chloro-N-isopropyl-4-((R)-1-(2-((R)-3,3,3-trifluoro-2-hydroxy-N-methyl-2-phenylpropanamido)ethyl)-6-azaspiro[2.5]octan-6-yl)benzamide], in assay [1], the concentration giving a half-maximal response (EC50) is 765 nM and the Emax stood at 47%. In assay [2], the EC50 was 79 nM and the Emax stood at 64%.

For `CC(C)N(C)C(=O)c1ccc(N2CCC3(CC2)C[C@@H]3CCN(C)C(=O)[C@](O)(c2ccccc2)C(F)(F)F)cc1Cl` [Example 7-13, 2-chloro-N-isopropyl-N-methyl-4-((R)-1-(2-((R)-3,3,3-trifluoro-2-hydroxy-N-methyl-2-phenylpropanamido)ethyl)-6-azaspiro[2.5]octan-6-yl)benzamide], in assay [1], the EC50 was found to be 158 nM and the Emax is 32%. In assay [2], the midpoint of the response, the EC50, lay at 14 nM and the Emax was determined as 55%.

As for `COc1cccc([C@@](O)(C(=O)N(C)CC[C@H]2CC23CCN(c2ccc(C(=O)N(C)C(C)C)c(Cl)c2)CC3)C(F)(F)F)c1` [Example 7-14, 2-chloro-N-isopropyl-N-methyl-4-((R)-1-(2-((R)-3,3,3-trifluoro-2-hydroxy-2-(3-methoxyphenyl)-N-methylpropanamido)ethyl)-6-azaspiro[2.5]octan-6-yl)benzamide], in assay [1], the “LXR alpha IP (nM)” value is listed as “No IP” and the Emax is 6%. Moreover, in assay [2], the EC50 amounted to 18 nM and the Emax amounted to 55%.

For `COc1cccc([C@@](O)(C(=O)N(C)CC[C@H]2CC23CCN(c2ccc(C(=O)N(C)C)c(Cl)n2)CC3)C(F)(F)F)c1` [Example 7-15, 2-chloro-N,N-dimethyl-6-((R)-1-(2-((R)-3,3,3-trifluoro-2-hydroxy-2-(3-methoxyphenyl)-N-methylpropanamido)ethyl)-6-azaspiro[2.5]octan-6-yl)nicotinamide], in assay [1], the half-maximal effective concentration (EC50) is 680 nM and the Emax turned out to be 37%. In addition, in assay [2], the EC50 stood at 12 nM and the Emax amounted to 58%.

In the case of `COc1cccc([C@@](O)(C(=O)N(C)CC[C@H]2CC23CCN(c2ccc(C(=O)NC4CC4)c(Cl)n2)CC3)C(F)(F)F)c1` [Example 7-16, 2-chloro-N-cyclopropyl-6-((R)-1-(2-((R)-3,3,3-trifluoro-2-hydroxy-2-(3-methoxyphenyl)-N-methylpropanamido)ethyl)-6-azaspiro[2.5]octan-6-yl)nicotinamide], in assay [1], the EC50 is 1790 nM and the Emax came to 40%. Further, in assay [2], the 50% effective concentration (EC50) came out at 101 nM and the Emax worked out at 54%.

In the case of `COc1cccc([C@@](O)(C(=O)N(C)CC[C@H]2CC23CCN(c2ccc(C(=O)N(C)C(C)C)c(Cl)n2)CC3)C(F)(F)F)c1` [Example 7-17, 2-chloro-N-isopropyl-N-methyl-6-((R)-1-(2-((R)-3,3,3-trifluoro-2-hydroxy-2-(3-methoxyphenyl)-N-methylpropanamido)ethyl)-6-azaspiro[2.5]octan-6-yl)nicotinamide], the EC50 was 160 nM in assay [1] and 12 nM in assay [2]. In addition, the Emax in assay [1] was found to be 36%; in assay [2] it was 59%.

For the molecule `COc1cccc([C@@](O)(C(=O)N(C)CC[C@H]2CC23CCN(c2ccc(C(=O)N(C)C4CC4)c(Cl)n2)CC3)C(F)(F)F)c1` [Example 7-18, 2-chloro-N-cyclopropyl-N-methyl-6-((R)-1-(2-((R)-3,3,3-trifluoro-2-hydroxy-2-(3-methoxyphenyl)-N-methylpropanamido)ethyl)-6-azaspiro[2.5]octan-6-yl)nicotinamide], in assay [1], the “LXR alpha IP (nM)” value is listed as “No IP” and the Emax came to 16%. In addition, in assay [2], the EC50 was 45 nM and the Emax is 57%.

`CNC(=O)c1ccc(N2CCC3(CC2)C[C@H]3CCN(C)C(=O)[C@](O)(c2cccc(OC)c2)C(F)(F)F)cc1Cl` [Example 7-21, 2-chloro-N-methyl-4-((S)-1-(2-((R)-3,3,3-trifluoro-2-hydroxy-2-(3-methoxyphenyl)-N-methylpropanamido)ethyl)-6-azaspiro[2.5]octan-6-yl)benzamide]: in assay [1], the “LXR alpha IP (nM)” value is on record as “No IP” and the Emax came out at 12%. Further, in assay [2], the 50% effective concentration (EC50) is 1550 nM and the Emax worked out at 36%.

In the case of `COc1cccc([C@@](O)(C(=O)N(C)CC[C@@H]2CC23CCN(c2ccc(C(=O)N(C)C)c(Cl)c2)CC3)C(F)(F)F)c1` [Example 7-22, 2-chloro-N,N-dimethyl-4-((S)-1-(2-((R)-3,3,3-trifluoro-2-hydroxy-2-(3-methoxyphenyl)-N-methylpropanamido)ethyl)-6-azaspiro[2.5]octan-6-yl)benzamide], in assay [1], the “LXR alpha IP (nM)” value is given as “No IP” and the Emax is 3%. For the same molecule, in assay [2], the midpoint of the response, the EC50, lay at 572 nM and the Emax stood at 43%.

Take `COc1cccc([C@@](O)(C(=O)N(C)CC[C@@H]2CC23CCN(c2ccc(C(=O)NC(C)C)c(Cl)c2)CC3)C(F)(F)F)c1` [Example 7-23, 2-chloro-N-isopropyl-4-((S)-1-(2-((R)-3,3,3-trifluoro-2-hydroxy-2-(3-methoxyphenyl)-N-methylpropanamido)ethyl)-6-azaspiro[2.5]octan-6-yl)benzamide]: in assay [1], the “LXR alpha IP (nM)” value is given as “No IP” and the Emax turned out to be 7%. In assay [2], the EC50 is 2070 nM and the Emax came out at 32%.

Turning to `CNC(=O)c1ccc(N2CCC3(CC2)C[C@H]3CCN(C)C(=O)[C@](O)(c2ccccc2)C(F)(F)F)cc1Cl` [Example 7-24, 2-chloro-N-methyl-4-((S)-1-(2-((R)-3,3,3-trifluoro-2-hydroxy-N-methyl-2-phenylpropanamido)ethyl)-6-azaspiro[2.5]octan-6-yl)benzamide], in assay [1], the “LXR alpha IP (nM)” value is reported as “No IP” and the Emax worked out at 16%. In assay [2], the EC50 was 1410 nM and the Emax was 37%.

`CN(C)C(=O)c1ccc(N2CCC3(CC2)C[C@H]3CCN(C)C(=O)[C@](O)(c2ccccc2)C(F)(F)F)cc1Cl` [Example 7-25, 2-chloro-N,N-dimethyl-4-((S)-1-(2-((R)-3,3,3-trifluoro-2-hydroxy-N-methyl-2-phenylpropanamido)ethyl)-6-azaspiro[2.5]octan-6-yl)benzamide]: the values for the concentration for a half-maximal effect (EC50) in assay [1] and in assay [2] were 3100 nM and 473 nM, respectively. Besides, the Emax in assay [1] worked out at 22%; in assay [2] it was 46%.

For `CN(CC[C@@H]1CC12CCN(c1ccc(C(=O)NC3CC3)c(Cl)c1)CC2)C(=O)[C@](O)(c1ccccc1)C(F)(F)F` [Example 7-26, 2-chloro-N-cyclopropyl-4-((S)-1-(2-((R)-3,3,3-trifluoro-2-hydroxy-N-methyl-2-phenylpropanamido)ethyl)-6-azaspiro[2.5]octan-6-yl)benzamide], in assay [1], the EC50 amounted to 6100 nM and the Emax was 32%. In assay [2], the concentration for a half-maximal effect (EC50) turned out to be 1020 nM and the Emax worked out at 31%.

Turning to `COc1cccc([C@@](O)(C(=O)N(C)CC[C@@H]2CC23CCN(c2ccc(C(=O)NC4CC4)c(Cl)c2)CC3)C(F)(F)F)c1` [Example 7-27, 2-chloro-N-cyclopropyl-4-((S)-1-(2-((R)-3,3,3-trifluoro-2-hydroxy-2-(3-methoxyphenyl)-N-methylpropanamido)ethyl)-6-azaspiro[2.5]octan-6-yl)benzamide], in assay [1], the “LXR alpha IP (nM)” value was “No IP” and the Emax amounted to 5%. In assay [2], a half-maximal effect (EC50) was put at 1870 nM and the Emax amounted to 32%.

Turning to `CC(C)NC(=O)c1ccc(N2CCC3(CC2)C[C@H]3CCN(C)C(=O)[C@](O)(c2ccccc2)C(F)(F)F)cc1Cl` [Example 7-28, 2-chloro-N-isopropyl-4-((S)-1-(2-((R)-3,3,3-trifluoro-2-hydroxy-N-methyl-2-phenylpropanamido)ethyl)-6-azaspiro[2.5]octan-6-yl)benzamide], in assay [1], the “LXR alpha IP (nM)” value is “No IP” and the Emax was found to be 6%. Besides, in assay [2], the EC50 came out at 1620 nM and the Emax is 31%.
